The data set in a line: gradient 5% acetonitrile 3 min, to 50% in 2 min, to 85% in 15 min, held 3 min, 100 µL/min. As to conditions: column: Zorbax Extend-C18 2.1 x 50 mm; eluents: water / acetonitrile, 0.1% formic acid. The method, boiled down: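 Retention times come from adduct peaks that were picked computationally and then checked by hand. The standards, pure and pooled in mixtures of ~100 molecules, were run on a Zorbax Extend-C18 column (2.1 × 50 mm, 1.8 μm) at 100 μL/min with water and acetonitrile, each with 0.1% formic acid. Detection was by quadrupole time-of-flight mass spectrometry in positive and negative ionization mode, with a dead volume of 40 μL and a dwell volume of 900 μL.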
The molecule `COc1ccc(N2CCN(C(=O)CCC(=O)N3CCCn4nc(C)cc43)CC2)cc1` showed an RP-LC retention time of 606 s.
Molecule `Cc1ccc(C)c(N2CCN(c3ccc4cc(S(=O)(=O)N5CCCCC5)ccc4n3)CC2)c1` registered an RP-LC retention time of 1360 s.
With `c1ccc2c(c1)Nc1ccncc1S2` the figure was 634 s.
Molecule `O=S(=O)(c1ccc(Cl)cc1)c1nc(-c2ccco2)oc1NCCCn1ccnc1` yielded an RP-LC retention time of 597 s.
For `CCc1onc(C)c1C1CCCN1Cc1cc(OC)c(O)c(OC)c1` (stereo not given) the value was 587 s; for `Cc1sc(-c2nc(C(C)C)cs2)cc1S(=O)(=O)N1CCCCC1`, 1310 s; for `CCN1C(=O)CCc2cc(NC(=O)Cc3ccccc3Cl)ccc21`, 795 s.
On to `CCC1CCCCN1C(=O)c1cnc2nc(C)ccc2c1Nc1ccc(OC)c(OC)c1` (stereo not given), for which the RP-LC retention time came to 648 s.
With `COc1ccccc1CNC1=NCCNC12CCN(S(=O)(=O)c1ccc(F)cc1)CC2` the figure was 704 s; with `O=C(Cn1ccc2ccccc21)N1CCN(S(=O)(=O)C2CC2)CC1`, 563 s.
For `CC1CCN(C(=O)c2nnc(-c3ccc(S(=O)(=O)N4CCCCC4)cc3)o2)CC1` the value was 1060 s; for `COc1ccc(-c2nc3nccc(-c4ccsc4)n3n2)c(OC)c1`, 832 s.
For `Cc1ccc(NC(=O)NC2CCN(c3ccc(F)cc3)C2=O)c(C)c1` (stereo not given) the value was 778 s; for `CC(=O)N[C@@H]1CCNC[C@@H]1c1nc(-c2ccccc2)no1`, 568 s; for `O=C(NCc1ccc(F)c(Cl)c1)c1ccc2ncnc(N3CCCC3)c2c1`, 670 s.
As for `Cc1ccc(S(=O)(=O)n2nc(-c3ccc(C)c(C)c3)nc2N)cc1`, the RP-LC retention time was determined as 1000 s.
For `COc1ccc(Cl)cc1C(=O)N1CCN(C2=NC=CN3CC(C)N=C23)CC1` (stereo not given) the value was 578 s; for `Cc1cc(C)cc(NC(=O)C2(C)Oc3cccnc3NC2=O)c1` (stereo not given), 702 s; for `Cc1ccc(O)c(CNC2CCN(c3ccc(C(=O)NC4CC4)cn3)C2)c1` (stereo not given), 560 s.
`Cc1cc2c(cc1S(=O)(=O)N1CCCC1C(=O)Nc1ccc(C(C)C)cc1)OC(C)C(=O)N2` (stereo not given): the RP-LC retention time stood at 916 s.
For `COc1cccc(-c2nc(N3CCCCC3)ncc2C(=O)O)c1` the value was 950 s; for `COc1ccc(Cn2c(C)c(CNCc3cccnc3)c(C(=O)O)c2C)cc1`, 597 s.
For `Cc1noc(C)c1CCNC(=O)C1CCCN(c2nc3ccccc3n(Cc3ccccc3)c2=O)C1` (stereo not given) the value was 974 s; for `Cc1ccc(-n2ccnc2SCc2nc(-c3cccc(F)c3)no2)cc1`, 971 s; for `CC(C)Cc1nc2nccc(-c3ccc(F)cc3)n2n1`, 886 s.
The molecule `COc1ccc(NC(=O)Cn2nc3nc(Nc4ccc(F)cc4)ccn3c2=O)cc1Cl` showed an RP-LC retention time of 718 s.
For `Cc1cc(=O)n(CC(=O)N(C)c2ccccc2)c(N2CCCCC2)n1` the value was 669 s; for `Cc1ccccc1-c1nc(C2CCN(S(=O)(=O)c3ccc4c(c3)CCC4)CC2)no1`, 1130 s.
With `Cn1cc(-c2cc3n(n2)CCCN3C(=O)CCC(=O)NCc2ccccn2)c2ccccc21` the figure was 629 s.
Turning to `CCS(=O)(=O)c1nc2ccc(NS(=O)(=O)c3cnc[nH]3)cc2s1`, the RP-LC retention time was 652 s.
Regarding `O=C(Cn1cnc2nc(N3CCC(C(=O)NC4CC4)CC3)sc2c1=O)NCCC1=CCCCC1`, the RP-LC retention time is 698 s.
As to `O=C(c1cn(-c2cc(N3CCSCC3)ncn2)cn1)N1CCc2ccccc2C1`, the RP-LC retention time stood at 886 s.
In turn, `Cc1cc(C)nc(Nc2nc(C(=O)N3CCN(C(=O)c4ccco4)CC3)cs2)n1` had an RP-LC retention time of 665 s.
`O=C(c1cc2ccccc2[nH]1)N1CCN(Cc2nc3ccccc3[nH]2)CC1`: the RP-LC retention time amounted to 576 s.
With `O=c1ccc(-c2cccs2)nn1CCNS(=O)(=O)c1ccccc1C(F)(F)F` the figure was 779 s.
For `Cc1cc2nc(C(=O)NCC(C)C)c(=O)n(C)c2cc1C`, the RP-LC retention time came out at 668 s.
With `CCn1cc(-c2nc(C)c(C(=O)Nc3ccccc3)s2)c2cccnc21` the figure was 965 s; with `CCc1cccc(NC(=O)Nc2ccc3nnc(C)n3c2)c1`, 730 s.
As to `Cc1cc(Cl)ccc1S(=O)(=O)N1CCN(c2nc3ccncc3n(C)c2=O)CC1`, the RP-LC retention time was determined as 615 s.
With `CCCn1ccc2sc(C)c(C(=O)NCc3cccc(OCC)c3)c2c1=O` the figure was 939 s; with `COCCn1ccc2nc(C)c(C(=O)NCCc3c[nH]c4ccccc34)cc2c1=O`, 767 s; with `CCN1CCCC(C(=O)NCc2cccs2)(c2ccccc2)CC1` (stereo not given), 643 s.
In the case of `CCc1nnc(-c2ccc3ccn(CC(=O)NCc4ccc(F)cc4)c3c2)o1`, the RP-LC retention time worked out at 801 s.
`O=C(NCc1ccc2c(c1)OCO2)C1CCN(C(=O)c2cc(-c3cccnc3)n[nH]2)CC1` registered an RP-LC retention time of 656 s.
For `O=C(NCC(F)(F)F)C(=O)NCC1(c2cccs2)CCCCC1` the value was 804 s; for `O=C(Cc1nnc(-c2ccccc2)o1)NCC1CC1`, 684 s.
With `CC(C)NC(=O)c1ccc(OCC2CCCN(C(=O)Cc3ccc(F)cc3)C2)cc1` (stereo not given) the figure was 979 s; with `CCNC(=O)c1nc2cc(C)c(C)cc2n(CC)c1=O`, 745 s.
Molecule `CC(C)N1CCn2cc(S(=O)(=O)Nc3ccc(Cl)cc3F)cc2C1=O` gave an RP-LC retention time of 812 s.
With `CCNc1nc(C)cc(N2CCN(C(=O)Nc3ccccc3)CC2)n1` the figure was 636 s; with `O=C(Cc1csc(NC(=O)C2CCC(=O)N2)n1)NCCC1=CCCCC1` (stereo not given), 643 s; with `O=C1COc2ccc(S(=O)(=O)N3CCCC3C(=O)N3CCN(c4ccccc4F)CC3)cc2N1` (stereo not given), 790 s.
With `O=c1c2cnc(N3CCOCC3)nc2ccn1CCc1c[nH]c2ccccc12` the figure was 801 s.
The molecule `O=C(Cn1nc(N2CCCCCC2)c2ccccc2c1=O)NC1CCc2ccccc21` (stereo not given) displayed an RP-LC retention time of 1120 s.
With `COc1ccc2c(c1)C1(CCN(S(=O)(=O)c3ccc(F)cc3F)C1)C(=O)N2C` (stereo not given) the figure was 927 s; with `Cc1ccc(S(=O)(=O)N2C[C@@H](F)C[C@H]2C(=O)N2CCc3ccccc3C2)cc1F`, 954 s; with `Cc1ccc(C)c2c(=O)c3c([nH]c12)CCN(CC(=O)Nc1ccc(F)cc1F)C3`, 648 s.
For `Cc1noc(C)c1CC(=O)N1CC(n2cc(COc3ccc(F)cc3)nn2)C1` the value was 721 s; for `c1ccc(CNc2c(-c3ccccc3)nc3ncccn23)cc1`, 709 s.
The molecule `O=C(NCc1ccccc1)N1CC(Oc2cccc(-c3nc(-c4ccccc4)no3)c2)C1` showed an RP-LC retention time of 1130 s.
On to `O=C(c1ccncc1)N1CCC2(CC1)N=C(c1ccccc1)NO2`, for which the RP-LC retention time worked out at 611 s.
With `c1cc(-c2noc(C3CCCCC3)n2)cc(N2CCOCC2)n1` the figure was 1010 s.
For `O=S(=O)(c1ccccc1)N1CCOc2ccccc21` the value was 974 s; for `CCCCc1ccc(NC(=O)N2CCC(c3cc(N)on3)CC2)cc1`, 876 s.
For `CC1Oc2ccccc2N(CC(=O)NC2CC2)C1=O` (stereo not given) the value was 691 s.
Regarding `COC(=O)C[C@@](O)(CCC(C)(C)O)C(=O)O[C@@H]1C(OC)=C[C@]23CCCN2CCc2cc4c(cc2[C@@H]13)OCO4`, the RP-LC retention time was 612 s.
With `CCOc1ccc(NC(=O)C2CCCN(S(=O)(=O)c3cc(-c4noc(C)n4)cs3)C2)cc1` (stereo not given) the figure was 982 s; with `O=C(c1csc(N2CCN(c3ccccc3)CC2)n1)N1CCCCC1`, 1020 s; with `Cn1c(=O)c(N2CCC(NC(=O)Nc3ccccc3F)CC2)nc2ccccc21`, 910 s.
`c1ccc(-c2n[nH]c(C3CCCCN3)n2)cc1` (stereo not given) came in with an RP-LC retention time of 574 s.
With `COC(=O)c1cccc(NC(=O)c2[nH]c3cc(C)sc3c2CN2CCOCC2)c1` the figure was 673 s; with `CC1CCN(C(=O)C(=O)NCc2n[nH]c(=O)c3ccccc23)CC1`, 639 s; with `Cc1ccc(S(=O)(=O)N2C[C@H](c3nc(-c4cccnc4)no3)[C@@H](C)C2)cc1`, 939 s.
With `Cc1ccccc1NC(=O)c1nc2ccccc2[nH]c1=O` the figure was 735 s; with `O=S(=O)(c1ccc(C(F)(F)F)cc1)N1CC(c2nc(-c3ccncc3)no2)C1`, 888 s; with `Cc1cc(NC(=O)C2CCN(C(=O)c3cnn(-c4ccccc4)c3C)CC2)no1`, 657 s.
Take `Cc1oc(C2CCN(S(=O)(=O)c3ccc(Cl)cc3)CC2)nc1C(=O)N1CCCC1`: the RP-LC retention time was determined as 977 s.
For `O=C(NC1CCc2ccccc21)C1CCCN(c2ncnc3c2oc2ccccc23)C1` (stereo not given) the value was 816 s; for `Cn1c(C2CCN(C(=O)Nc3ccc(Br)cc3F)CC2)cc(=O)n2nccc12`, 694 s.
For `Cc1noc(-c2nn(C)c3c2CN(C(=O)C2(c4ccccc4)CC2)CC3)n1` the value was 757 s.
